From patent US20250188080A1, “IMIDAZOLONYLQUINOLINE COMPOUNDS AND THERAPEUTIC USES THEREOF” (Merck Patent GmbH, priority 2019, published 2025)

Legend:
[1] = Microsomal stability (intrinsic clearance), mouse; format: in vitro ADME; set-up: microsomal CLint: dose or concentration left out as unconfirmed; details: for CLint (mouse): mouse microsomes
Description: A microsomal stability assay is used to measure in vitro clearance (Clint). The assay involves measuring the rate of disappearance of a compound due to its intrinsic attitude to be metabolized (“intrinsic” meaning that the disappearance is not affected by other properties like permeability, binding etc. that play a role when quantifying in vivo clearance). The microsomal stability (intrinsic clearance, Clint) and, thus, metabolic stability is generally given as μl/min/mg protein. It can be visualized as the volume of solution that 1 mg of microsomes is able to clear of the compound in one minute.
A Tecan Genesis workstation (RSP 150/8) was used for to perform the microsomal incubations. Analysis was carried out using a Waters ACQUITY UPLC system coupled to an ABSciex API3000 mass spectrometer. Data analysis was performed using Assay Explorer (Symyx).
• Potassium phosphate buffer: 0.05 M potassium phosphate buffer pH 7.4 containing 1 mM MgCl2 • NADPH (nicotinamide adenine dinucleotide phosphate): 22.5 mg NADPH-Na4 in 1.8 ml potassium phosphate buffer • Acetonitrile: 50 Vol % acetonitrile (1 volume acetonitrile, 1 volume water) • DMSO: 20 Vol % DMSO in water • Stock solution of 20 mg/ml human or mouse liver microsomes (protein)/ml in phosphate buffer • Stock solution of 10 mM compound in 100% DMSO
Dilution of test compounds was done in 2 steps starting from a 10 mM stock solution of the respective compound in 100% DMSO. First 4 μl stock solution was added to 196 μl of 20 Vol % DMSO. In a second step, 10 μl of the first dilution were added to 1590 μl potassium phosphate buffer to achieve a final concentration of 1.25 μM in the final compound dilution. Thus, the amount of organic solvent in the assay was kept to a minimum (<1%).
The human or mouse liver microsome (protein) solution to be used in the assay was prepared by mixing 750 μl stock solution (20 mg/ml) and 2250 μl potassium phosphate buffer to a final concentration of 5 mg/ml.
Incubation was carried out on a 96 deep well incubation plate. […]

[2] = biological target: T1, human phosphodiesterase-4D2 (Homo sapiens, UniProt Q08499); assay: PDE4D2 assay (Cerep); format: biochemical
T1 construct: purchased Cerep 4077; host or cells: Sf9 cells
Description: A commercially available assay of Cerep was used (Catalog ref. 4077; SOP no 1C1045) The assay is designed to evaluate the effects of test compounds on the activity of the human phosphodiesterase-4D2 quantified by measuring the formation of 5′AMP from cAMP using a human recombinant enzyme expressed in Sf9 cells.
The test compound, reference compound or water (control) are added to a buffer containing 40 mM Tris/HCl (pH 7.4) and 8 mM MgCl2, 450 nM cAMP and 0.0125 μCi [^3H]cAMP.
Thereafter, the reaction is initiated by addition of the enzyme (about 1.5 U) and the mixture is incubated for 20 min at 22° C.
For basal control measurements, the enzyme is omitted from the reaction mixture.
Following incubation SPA (scintillation proximity assay) beads are added.
After 30 min at 22° C. under shaking, the amount of [^3H]5′AMP is quantified with a scintillation counter (Topcount, Packard).
The results are expressed as a percent inhibition of the control enzyme activity.
The standard inhibitory reference compound is Ro 20-1724, which is tested in each experiment at several concentrations to obtain an inhibition curve from which its IC50 value is calculated.

T1 sequence (Q08499 303-809 limits assumed): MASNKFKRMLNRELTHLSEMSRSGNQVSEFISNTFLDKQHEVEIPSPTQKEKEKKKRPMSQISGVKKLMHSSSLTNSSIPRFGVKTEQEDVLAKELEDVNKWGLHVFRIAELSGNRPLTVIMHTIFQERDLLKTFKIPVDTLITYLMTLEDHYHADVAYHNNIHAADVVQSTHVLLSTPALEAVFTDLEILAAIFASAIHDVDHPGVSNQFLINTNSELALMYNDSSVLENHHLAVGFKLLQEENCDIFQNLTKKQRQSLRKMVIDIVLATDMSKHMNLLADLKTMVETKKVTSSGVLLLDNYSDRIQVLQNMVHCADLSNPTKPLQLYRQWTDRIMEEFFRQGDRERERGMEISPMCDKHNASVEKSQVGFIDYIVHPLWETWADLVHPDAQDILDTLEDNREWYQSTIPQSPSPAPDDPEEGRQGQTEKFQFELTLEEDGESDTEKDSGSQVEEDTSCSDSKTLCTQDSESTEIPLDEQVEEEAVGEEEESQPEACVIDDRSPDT

| Structure (SMILES) | CLint (mouse) [1] [μl/min/mg protein] | IC50 [2] [nM] | microsomal CLint ([1]; mouse, liver microsomes, pH 7.4, mouse microsomes) [µL/min/mg] |
| --- | --- | --- | --- |
| COc1cc2ncc3c(c2cc1-c1cn(C)nc1C)n(-c1c(F)cncc1OC)c(=O)n3C (single isomer, unassigned) [Compound 1, 8-(1,3-Dimethyl-1H-pyrazol-4-yl)-1-(Sa)-(3-fluoro-5-methoxy-pyridin-4-yl)-7-methoxy-3-methyl-1,3-dihydro-imidazo[4,5-c]quinolin-2-one] | 22 | 3000 | – |
| COc1cc2ncc3c(c2cc1-c1cn(C)nc1C)n(-c1c(F)cncc1OC)c(=O)n3C (single isomer, unassigned) [Compound 2, 8-(1,3-Dimethyl-1H-pyrazol-4-yl)-1-(Ra)-(3-fluoro-5-methoxy-pyridin-4-yl)-7-methoxy-3-methyl-1,3-dihydro-imidazo[4,5-c]quinolin-2-one] | 103 | 440 | – |
| COc1cc2ncc3c(c2cc1-c1cn(C)nc1C)n(-c1c(F)cncc1OC)c(=O)n3C [Compound Y, 8-(1,3-dimethyl-1H-pyrazol-4-yl)-1-(3-fluoro-5-methoxypyridin-4-yl)-7-methoxy-3-methyl-1,3-dihydroimidazo[4,5-c]quinolin-2-one, reference compound] | – | 600 | 61 |
